This is an account of results in ChEMBL document CHEMBL2346516, “Sponge-derived acetylenic alcohols, petrosiols, inhibit proliferation and migration of platelet-derived growth factor (PDGF)-induced vascular smooth muscle cells” (Bioorg Med Chem, 2013).

In data set [1] the test system is HASMC. As to the kind of experiment: Inhibition of PDGF-induced actin filament dissociation in human HASMC at 2 to 4 uM after 24 hrs by Rhodamine-Phalloidin staining based fluorescence microscopy. Type of data set: functional, cell-based.
In data set [2] the test system is HASMC. The data set can be described thus: Cytotoxicity against human HASMC assessed as effect on cell migration at 4 uM after 24 hrs by modified boyden chamber analysis. Type of data set: cell-based.
Data set [3] concerns HASMC. As to the kind of experiment: Inhibition of PDGF-induced human HASMC migration at 4 uM after 24 hrs by modified boyden chamber analysis. Type of data set: functional, cell-based.
Data set [4] has as its target Platelet-derived growth factor receptor beta (Homo sapiens) (UniProt P09619). The data set can be described thus: Inhibition of PDGFRbeta in human HASMC assessed as decrease in PDGF-induced ERK1/2 phosphorylation at 1 to 4 uM after 5 to 15 mins by Western blot analysis.
For data set [5] the target is unchanged. As to the kind of experiment: Inhibition of PDGFRbeta in human HASMC assessed as decrease in PDGF-induced Akt phosphorylation at 1 to 4 uM after 5 to 15 mins by Western blot analysis. In general terms: In western blotting, separated proteins are transferred to a membrane and probed.
The target is the same in data set [6]. As to the kind of experiment: Inhibition of PDGFRbeta in human HASMC assessed as decrease in PDGF-induced PLC-gamma1 phosphorylation at 1 to 4 uM after 5 to 15 mins by Western blot analysis.
The target is the same in data set [7]. The data set can be described thus: Inhibition of PDGF-induced PDGFRbeta phosphorylation in human HASMC after 5 to 15 mins by Western blot analysis.
Data set [8] relates to HASMC. The data set can be described thus: Increase in p27 expression in PDGF-stimulated human HASMC at 2 to 4 uM after 24 hrs by Western blot analysis. It is filed as functional, cell-based.
The test system of data set [9] is HASMC. As to the kind of experiment: Increase in p21 expression in PDGF-stimulated human HASMC at 2 to 4 uM after 24 hrs by Western blot analysis. Type of data set: functional, cell-based.
Data set [10] concerns HASMC. As to the kind of experiment: Inhibition of PDGF-induced CDK4 expression in human HASMC at 2 to 4 uM after 24 hrs by Western blot analysis. It is filed as functional, cell-based.
In data set [11] the test system is HASMC. As to the kind of experiment: Inhibition of PDGF-induced cyclin D1 expression in human HASMC at 2 to 4 uM after 24 hrs by Western blot analysis. Type of data set: functional, cell-based.
Data set [12] has as its system HASMC. As to the kind of experiment: Inhibition of PDGF-induced cyclin E expression in human HASMC at 2 to 4 uM after 24 hrs by Western blot analysis. Type of data set: functional, cell-based.
For data set [13], the system named is HASMC. As to the kind of experiment: Inhibition of PDGF-induced CDK2 expression in human HASMC at 2 to 4 uM after 24 hrs by Western blot analysis. Type of data set: functional, cell-based.
Data set [14] has as its system HASMC. As to the kind of experiment: Cell cycle arrest in PGDF-stimulated human HASMC assessed as proportion of cells in S phase at 4 uM treated for 6 hrs prior to incubation with PDGF measured after 24 hrs by propidium iodide staining based flow cytometry (reference value: 20.8%). Type of data set: functional. A general note: Flow cytometry measures light scatter and fluorescence of single cells or particles in a stream.

Data set [15] relates to HASMC. The data set can be described thus: Cell cycle arrest in PGDF-stimulated human HASMC assessed as proportion of cells in S phase at 2 uM treated for 6 hrs prior to incubation with PDGF measured after 24 hrs by propidium iodide staining based flow cytometry (reference value: 20.8%). Type of data set: functional.
Data set [16] relates to HASMC. The data set can be described thus: Cell cycle arrest in PGDF-stimulated human HASMC assessed as proportion of cells in S phase at 1 uM treated for 6 hrs prior to incubation with PDGF measured after 24 hrs by propidium iodide staining based flow cytometry (reference value: 20.8%). It is filed as functional.
For data set [17], the system named is HASMC. As to the kind of experiment: Cytotoxicity against human HASMC assessed as effect on cell vaibility at 0.5 to 4 uM after 24 hrs by MTT assay. Type of data set: cell-based. For orientation: Formazan colour is commonly taken as a measure of viable cells.
The subject of data set [18] is HASMC. As to the kind of experiment: Inhibition of PDGF-induced human HASMC proliferation after 24 hrs by trypan blue dye exclusion assay. Type of data set: functional, cell-based.
Data set [19] relates to HASMC. As to the kind of experiment: Inhibition of PDGF-induced DNA synthesis in human HASMC assessed as decrease in [3H]thymidine incorporation after 20 hrs by microplate scintillation analysis. It is filed as functional, cell-based.

Activity calls are given as the source filed them. The calls are words filed in the database; no cut-off is given here.

Chain of Platelet-derived growth factor receptor beta (Homo sapiens) (P09619 whole entry): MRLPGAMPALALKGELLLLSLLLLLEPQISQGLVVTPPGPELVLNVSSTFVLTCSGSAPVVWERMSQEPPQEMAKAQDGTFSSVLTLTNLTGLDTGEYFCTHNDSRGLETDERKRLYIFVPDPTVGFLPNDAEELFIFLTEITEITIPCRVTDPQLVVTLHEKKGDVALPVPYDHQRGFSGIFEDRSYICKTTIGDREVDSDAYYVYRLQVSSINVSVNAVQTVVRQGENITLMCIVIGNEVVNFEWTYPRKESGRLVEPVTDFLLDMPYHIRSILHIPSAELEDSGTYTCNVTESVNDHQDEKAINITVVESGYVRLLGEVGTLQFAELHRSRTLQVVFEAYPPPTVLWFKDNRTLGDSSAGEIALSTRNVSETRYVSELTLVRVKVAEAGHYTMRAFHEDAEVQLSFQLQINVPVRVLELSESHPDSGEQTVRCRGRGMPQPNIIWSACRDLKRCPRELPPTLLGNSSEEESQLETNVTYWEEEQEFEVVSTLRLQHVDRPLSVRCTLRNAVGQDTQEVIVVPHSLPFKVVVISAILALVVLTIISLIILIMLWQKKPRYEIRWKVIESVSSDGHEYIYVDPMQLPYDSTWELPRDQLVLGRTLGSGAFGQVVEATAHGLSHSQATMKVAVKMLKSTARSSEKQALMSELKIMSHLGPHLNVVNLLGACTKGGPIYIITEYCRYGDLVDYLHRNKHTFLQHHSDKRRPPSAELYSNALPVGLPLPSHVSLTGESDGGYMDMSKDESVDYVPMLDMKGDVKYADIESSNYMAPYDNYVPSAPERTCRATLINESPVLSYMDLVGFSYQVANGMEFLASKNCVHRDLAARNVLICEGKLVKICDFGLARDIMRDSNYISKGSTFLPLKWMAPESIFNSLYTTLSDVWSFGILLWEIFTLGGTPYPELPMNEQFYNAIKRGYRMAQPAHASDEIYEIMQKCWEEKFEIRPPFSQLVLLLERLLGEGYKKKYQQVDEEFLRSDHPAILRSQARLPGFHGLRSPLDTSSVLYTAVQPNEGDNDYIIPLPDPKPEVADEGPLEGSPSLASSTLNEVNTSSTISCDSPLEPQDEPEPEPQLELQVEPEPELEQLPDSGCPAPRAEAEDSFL

Broadly, the IC50 is the concentration that inhibits the measured activity by half. For `CCCCCCCC/C=C\CCCCCCC[C@H](O)[C@@H](O)[C@H](O)C#CC#CCO` [PETROSIOL A], the inhibition entry (in the data set on HASMC [1]; with HASMC [3]; in data set [4]; in data set [5]; in [6]; in the data set with HASMC [10]) was “Active” throughout. Further, the inhibition result in the data set with HASMC [11], with HASMC [12] and in the data set with HASMC [13] was “Active” throughout. The Activity entry is “Non-toxic” with HASMC [2]; 7.5% in the data set with HASMC [14]; 10.1% in the data set with HASMC [15]; 17.7% in the data set on HASMC [16]; “Non-toxic” with HASMC [17]. Besides, the inhibition result (in [7]; in the data set with HASMC [18]; in the data set with HASMC [19]) was “Dose-dependent effect” in each case. For the same compound, the result in the data set with HASMC [8] and in the data set on HASMC [9] was Active. Besides, the results for the IC50 in the data set with HASMC [18] and in the data set on HASMC [19] were 1000 nM and 730 nM, respectively.

Take `CC(C)CCCCCC/C=C\CCCCCCC[C@H](O)[C@@H](O)[C@H](O)C#CC#CCO` [PETROSIOL B]: in the data set with HASMC [19], the IC50 amounted to 710 nM and the inhibition entry is “Dose-dependent effect”.

Consider `C#C/C=C\CCCCCCCCCC/C=C\CCCCCCC[C@H](O)[C@@H](O)[C@H](O)C#CC#CCO` [PETROSIOL C], for which, in the data set on HASMC [19], the IC50 was determined as 720 nM and the inhibition result is “Dose-dependent effect”.

As for `CCCCCCCCC/C=C\CCCCCCC[C@H](O)[C@@H](O)[C@H](O)C#CC#CCO` [PETROSIOL D], in the data set on HASMC [19], the IC50 worked out at 690 nM and the inhibition result is “Dose-dependent effect”.

Take `CC(C)CCCCCC/C=C\CCCCCCCCC[C@@H](O)C#CC#CCO` [STRONGYLODIOL C]: in the data set with HASMC [19], the IC50 was determined as 1100 nM and the inhibition result was “Dose-dependent effect”.

`CC(C)CCCCCCC#CCCCCCCCCC[C@@H](O)C#CC#CCO` [STRONGYLODIOL D]: in the data set on HASMC [19], the concentration for half-maximal inhibition (IC50) stood at 2200 nM and the inhibition entry is “Dose-dependent effect”.
